Measurements reported in patent US20170280718A1, “HERBICIDAL AND FUNGICIDAL COMPOSITIONS AND THEIR USES” (The Regents of the University of California, priority 2014, published 2017).
“Also recorded” adds a separate entry of the source. Where two headings read alike, the source gives them in different places.

Experiments:
[1] = test system: E. coli; experiment: Bacterial growth in LB media containing the chemical; assay type: cell-based; settings: OD over 8 hours
Experimental: Two mL of Luria-Bertani (LB) media (10 g tryptone, 5 g yeast extract, and 10 g NaCl, pH 7) were inoculated with a single colony of TOP 10 cells and incubated overnight at 37° C. Thirty μL of this culture was then used to inoculate 3 mL of LB media containing the chemical. The OD was measured every 30 minutes over 8 hours using a spectrometer.

[2] = test system: tubulin; experiment: MT polymerization assay (in vitro, OD of polymerized tubulin); assay type: biochemical; settings: 15 μM
From the text: The MT polymerization data was obtained using a polymerization assay kit (Cytoskeleton, Inc. Denver Colo.), employing OD measurements of polymerized tubulin as previously described (Shelanski et al., 1973; Lee and Timasheff, 1977).

[3] = test system: Schizosaccharomyces pombe; experiment: Yeast growth on solid YPD containing the chemical; assay type: cell-based; settings: 5 days
Experimental: Single colonies of Saccharomyces cerevisiae-Y2H Gold and Schizosaccharomyces pombe were grown in liquid yeast extract-peptone-dextrose (YPD) media (10 g yeast extract, 20 g peptone, and 20 g glucose per 1 L of media, pH 7), at 30° C. for 24 hours. Yeast cultures were transferred to 3 mL of YPD to grow until an OD of 0.7 was reached. Ten μL of liquid YPD containing yeast at an OD 0.7 were placed onto solid YPD (10 g yeast extract, 20 g peptone 20 g glucose and 11 g bacto-agar per 1 L of media, pH 7) in a 6 well plate containing the chemicals. Four serial dilutions (1:10) were spotted per well. Plates were incubated at 30° C. for 3 days for Saccharomyces cerevisiae-Y2H Gold and 5 days for Schizosaccharomyces pombe and imaged with a flatbed scanner.

[4] = test system: ER, Golgi, TGN, early endosomes, vacuole, CLC2-GFP, Theseus-GFP, sec-GFP markers; experiment: Specificity: organelle markers and their subcellular localizations in etiolated hypocotyls; assay type: cell-based, Arabidopsis
From the text: (§1) Transgenic lines expressing MAN-YFP (Nebenfuhr et al., 1999), HDEL-GFP (Nelson et al., 2007), VAMP711-YFP (Geldner et al., 2009), NTPP-RFP (Rosado et al.), THE1-GFP (Hematy et al., 2007), CLC-GFP (Konopka et al., 2008), VHA-RFP (Dettmer et al., 2006), VTI12-YFP (Geldner et al., 2009), CFP-SYP61 (Robert et al., 2008), sec-GFP (Goh et al., 2007), CESA6-YFP (Paredez et al., 2006), TUB-GFP (Nakamura et al., 2004), EB1-GFP (Bisgrove et al., 2008) and TALIN-GFP ((Mathur et al., 1999) were used. In addition, the mutant ixr1-1 (Scheible et al., 2001) and prc1-1 (Desnos et al., 1996) were used.
Confocal images for CFP-SYP61-×CESA3-GFP were obtained using a Leica SP5 microscope using a 63× water objective employing dual channel sequential line scanning. Fluorescent markers were excited at 442 nm (CFP) and 488 nm (GFP). Additional confocal images were obtained using a Zeiss 710 equipped with a 63× oil and a 40× water objective. A 561 nm diode laser was used for propidium iodide (PI, Sigma) and RFP, a 488 nm for GFP, a 514 nm for YFP, and a 405 nm for CFP. Image analysis was performed using a combination of software tools: ImageJ software (version 1.36b; http://rsbweb.nih.gov/ij/), Image Pro Plus (Media Cybernetics, Rockville, Md.), and Imaris (Bitplane, Saint Paul, Minn.). […]

[5] = test system: Phytophtora capsici; experiment: Phytophthora growth in corn agar media; assay type: cell-based; settings: 3 weeks in supplemented media
Experimental: Phytophtora capsici inoculates were grown in corn agar media supplemented either with DMSO or different concentrations of CESTRIN. After 3 weeks cultures were imaged using flatbed scanner.

[6] = test system: GFP-CESA3 (cellulose synthase complexes, CSCs); settings: 2-hour CESTRIN treatment (15 μM); control 218 nm/min
[7] = test system: cellulose content in Arabidopsis etiolated seedlings; experiment: Cellulose content of etiolated hypocotyls (modified Updegraff method, Anthrone assay); assay type: in vivo, Arabidopsis thaliana
Experimental: Etiolated WT Col-0 Arabidopsis thaliana seedlings were grown on AGM containing CESTRIN as described above. Hypocotyls were harvested after 8 days of growth. Cell wall materials were isolated into alcohol insoluble residues (AIR) (Gunl et al., 2010) and cellulose content was estimated using a modified Updegraff method (Updegraff, 1969). Briefly, insoluble trifluoroacetic acid hydrolyzed AIR pellets were quantified using the Anthrone assay as described earlier Viles & Silverman (1949) and Dische (1962).

[8] = test system: Arabidopsis etiolated hypocotyls; experiment: Hypocotyl growth measurements of etiolated seedlings; assay type: in vivo; settings: for IC50: Arabidopsis thaliana; for hypocotyl growth response of prc1-1 mutant: CESA6 mutant prc1-1, 8 μM CESTRIN or 4 nM isoxaben, lower degree than WT Col-0
Experimental: For growth analysis, seedlings were germinated on AGM containing the chemicals CESTRIN or isoxaben solubilized in DMSO and grown as described above. When the experiment was complete, the plates were scanned using a flatbed scanner (Epson Perfection V300) and hypocotyl lengths were measured using the segmented line tool in the image analysis software, ImageJ (Rasband et al., 1997-2014). Statistical analyses were carried out using the statistical package, R (R Core Team, 2012).

[9] = test system: GFP-CESA3 and CFP-SYP61 compartments; experiment: Colocalization of GFP-CESA3 and CFP-SYP61 compartments, confocal microscopy; assay type: cell-based, Arabidopsis; settings: versus DMSO; p=0.0013, t-test
Experimental: (§2) Confocal images for CFP-SYP61-×CESA3-GFP were obtained using a Leica SP5 microscope using a 63× water objective employing dual channel sequential line scanning. Fluorescent markers were excited at 442 nm (CFP) and 488 nm (GFP). Additional confocal images were obtained using a Zeiss 710 equipped with a 63× oil and a 40× water objective. A 561 nm diode laser was used for propidium iodide (PI, Sigma) and RFP, a 488 nm for GFP, a 514 nm for YFP, and a 405 nm for CFP. Image analysis was performed using a combination of software tools: ImageJ software (version 1.36b; http://rsbweb.nih.gov/ij/), Image Pro Plus (Media Cybernetics, Rockville, Md.), and Imaris (Bitplane, Saint Paul, Minn.).
CSCs are enriched in SYP61 associated compartments upon CESTRIN treatment. The apparent redistribution of CSCs in the cell cortex prompted us to further investigate the identity of CESTRIN bodies. Previous studies have shown that CSCs are partially colocalized with SYP61/VHA-a1 in early endosome/TGN compartments (Crowell et al., 2009; Gutierrez et al., 2009). The presence of CESAs in SYP61 vesicles has been established by proteomic analysis (Drakakaki et al., 2012). […] As previously shown, both SYP61 and SYP41/42 partially overlap with CESA6 under mock treatment, however only SYP61 remains partially colocalized after mannitol treatment (Gutierrez et al., 2009). […]

[10] = test system: 3×Ypet-POM2/CSI1
[11] = test system: microtubules (TUB-GFP, RFP-TUA5), EB1-GFP, Talin-GFP, CESA6-YFP; experiment: Cytoskeleton and CESA marker localization in etiolated hypocotyls (microtubules, EB1, actin, CESA6); assay type: cell-based, Arabidopsis
From the text: as §1, §2

[12] = test system: GFP-KOR1; settings: CESTRIN treatment; control average 220 nm/min

Cc1cc(C(F)(F)F)cc(NNc2c([N+](=O)[O-])cc(C(F)(F)F)cc2[N+](=O)[O-])n1 [CESTRIN, 1-[2,6-dinitro-4-(trifluoromethyl)phenyl]-2-[6-methyl-4-(trifluoromethyl)pyridin-2-yl]hydrazine]
effect on proliferation of bacteria [1]: no effect on their proliferation was observed
in-vitro polymerization of tubulin [2]: not affected; also recorded: does not inhibit in vitro tubulin polymerization
growth of yeast [3]: inhibited
localization of PM-receptor-like kinase Theseus-GFP and secretion marker sec-GFP [4]: neither the localization of the PM-receptor-like kinase Theseus-GFP nor the secretion marker sec-GFP were altered
morphology of endosomes labeled by CLC2-GFP [4]: unaltered morphology
Phytophthora capsici growth [5]: completely inhibited
average velocity of the GFP-CESA3 particles [6]: 127 nm/min
Cellulose content, Hypocotyl ([7]; 9 μM, etiolated seedlings, 8 days, DMSO 103.7 ± 6.4): 75.3 ± 2.7 μg/mg AIR
reduction in cellulose compared to control seedlings ([7]; hypocotyls grown on 9 μM CESTRIN): ~30%
IC50 ([8]; read-out: estimated IC50, anisotropic cell growth): 4.9 µM
IC50 ([8]; read-out: half maximal inhibitory concentration (IC50), growth inhibition of hypocotyls): 4.85 µM
hypocotyl growth response of prc1-1 mutant [8]: showed sensitivity
reduction of hypocotyl growth of WT Col-0 ([8]; WT Col-0, 8 μM CESTRIN vs DMSO, P=0.001): 80%
reduction of hypocotyl growth of ixr1-1 ([8]; isoxaben-resistant CESA3 mutant ixr1-1, 8 μM CESTRIN vs DMSO, n=16): 62%
enhancement of colocalization of GFP-CESA3 and CFP-SYP61 compartments [9]: ~15%
localization of 3×Ypet-POM2 ([10]; 2 hours of CESTRIN treatment): localized to the cytoplasm
motility of POM2 labelled particles ([10]; after 2 hours of treatment): came virtually to a rest
average motility of POM2 labelled particles ([10]; after about 1.5 hours of treatment, n=106, control ~262 nm/min): 0.273 ×10⁻⁶ cm/s
morphology or organization of actin (Talin-GFP) ([11]; 15 μM): does not affect
localization of the end binding protein 1 (EB1-GFP) ([11]; 15 μM (printed 15 JIM)): induced cytoplasmic localization
MT organization and GFP-CESA3 particle distribution (RFP-TUA5 / GFP-CESA3 seedlings) ([11]; two-hour treatment): causes loss of MT organization and redistribution of GFP-CESA3 particles
mean velocity of GFP-KOR1 labelled particles [12]: ~60 nm/min

CCC(C)(CC)c1cc(NC(=O)c2c(OC)cccc2OC)on1 [isoxaben, N-[3-(1-Ethyl-1-methylpropyl)-5-isoxazolyl]-2,6-dimethyoxybenzamide, reference compound]
hypocotyl growth response of prc1-1 mutant [8]: showed sensitivity
hypocotyl growth of ixr1-1 ([8]; ixr1-1, 4 nM isoxaben vs DMSO, p=0.2): not reduced
